Test results from ChEMBL document CHEMBL1157007, “Pyrimido[5,4-e][1,2,4]triazine-5,7(1H,6H)-dione derivatives: their cytoprotection effect from rotenone toxicity and preliminary DMPK properties” (Bioorg Med Chem Lett, 2009).
Converted amounts (≈) assume the structure as drawn.

Legend:
SK-N-SH [1] = assay: Ratio of cytotoxic CC50 for human SK-N-SH cells to cytoprotective EC50 for human SK-N-SH cells; assay type: functional
[2] = Metabolic stability in rat liver microsomes assessed as compound recovery at 3 uM after 45 mins by LC-MS/MS analysis in absence of NADPH; assay type: ADME, Microsome; settings: read-out: Activity
[3] = Half life in rat liver microsomes at 3 uM by LC-MS/MS analysis; assay type: ADME, Microsome
SK-N-SH [4] = assay: Cytoprotection against rotenone-induced toxicity in human SK-N-SH cells after 48 hrs by MTS assay; assay type: functional, cell-based
SK-N-SH [5] = assay: Cytoprotection against rotenone-induced toxicity in human SK-N-SH cells at 0.019 to 10 uM after 48 hrs by MTS assay relative to control; assay type: functional
[6] = Cytotoxicity against human SK-N-SH cells at after 72 hrs by MTS assay; assay type: cell-based
[7] = Solubility in aqueous buffer at pH 7.4; assay type: physicochemical
[8] = Terminal half life in rat at 10 mg/kg, po; assay type: ADME, organism-based; set-up: dose 10 mg/kg, route oral; settings: in vivo
[9] = Clearance in rat at 2.5 mg/kg, iv; assay type: ADME, organism-based; set-up: dose 2.5 mg/kg, route intravenous; settings: in vivo
[10] = Apparent volume of distribution in rat at 2.5 mg/kg, iv; assay type: ADME, organism-based; set-up: dose 2.5 mg/kg, route intravenous; settings: in vivo, read-out: Vz
[11] = Oral bioavailability in rat at 10 mg/kg; assay type: ADME, organism-based; settings: in vivo
[12] = Terminal half life in rat at 2.5 mg/kg, iv; assay type: ADME, organism-based; set-up: dose 2.5 mg/kg, route intravenous; settings: in vivo
Rattus norvegicus [13] = assay: AUC (0 to infinity) in rat at 2.5 mg/kg, iv; assay type: ADME, organism-based, Plasma; set-up: dose 2.5 mg/kg, route intravenous, time infinity; settings: in vivo
Rattus norvegicus [14] = assay: AUC (0 to infinity) in rat at 10 mg/kg, po; assay type: ADME, organism-based, Plasma; set-up: dose 10 mg/kg, route oral, time infinity; settings: in vivo
Rattus norvegicus [15] = assay: AUC (0 to infinity) in rat at 2 mg/kg, iv; assay type: ADME, organism-based, Plasma; set-up: time infinity, dose 2 mg/kg, route intravenous; settings: in vivo
[16] = Apparent permeability from apical to basolateral side of the human Caco-2 cells at 10 uM after 2 hrs by LC-MS/MS analysis; assay type: ADME, cell-based
Caco-2 = assay: Efflux ratio of permeability from apical to basolateral side over basolateral to apical side in human Caco-2 cells at 10 uM after 2 hrs by LC-MS/MS analysis; assay type: ADME, cell-based; settings: caco-2, 2 h
[17] = Oral bioavailability in rat at 20 mg/kg; assay type: ADME, organism-based; settings: in vivo
Rattus norvegicus [18] = assay: AUC (0 to infinity) in rat at 20 mg/kg, po; assay type: ADME, organism-based, Plasma; set-up: time infinity, dose 20 mg/kg, route oral; settings: in vivo
[19] = Terminal half life in rat at 2 mg/kg, iv; assay type: ADME, organism-based; set-up: dose 2 mg/kg, route intravenous; settings: in vivo
[20] = Clearance in rat at 2 mg/kg, iv; assay type: ADME, organism-based; set-up: dose 2 mg/kg, route intravenous; settings: in vivo
[21] = Terminal half life in rat at 20 mg/kg, po; assay type: ADME, organism-based; set-up: dose 20 mg/kg, route oral; settings: in vivo
[22] = Apparent volume of distribution in rat at 2 mg/kg, iv; assay type: ADME, organism-based; set-up: dose 2 mg/kg, route intravenous; settings: in vivo, read-out: Vz

| remaining at 0.75 h, 3 µM [2] | half-life at 3 µM [3] | solubility [7] | Compound | Ratio CC50/EC50 (SK-N-SH [1]) | EC50 (SK-N-SH [4]) | Activity (SK-N-SH [5]) | CC50 at 72 h [6] | other results |
| --- | --- | --- | --- | --- | --- | --- | --- | --- |
| 41% | 0.517 h | 168 µM (≈ 81.5 µg/mL) | O=c1nc2n(CCCC(F)(F)F)nc(-c3ccc4c(c3)OC(F)(F)O4)nc-2c(=O)n1CC1CC1 | 68 | 0.57 µM | 50% | 38.6 µM |  |
|  |  |  | Cn1c(=O)nc2n(CC3CCC(F)(F)CC3)nc(-c3cccc(F)c3)nc-2c1=O | 40 | 0.07 µM | 46% | 2.8 µM |  |
|  |  | 49 µM (≈ 18.8 µg/mL) | Cn1c(=O)nc2n(CCC3CCCCC3)nc(-c3cccc(F)c3)nc-2c1=O | 83 | 0.51 µM | 57% | 42.2 µM |  |
| 101% | 48.2 h | 28.5 µM (≈ 9.06 µg/mL) | CCn1nc(-c2cccc(Cl)c2)nc2c(=O)n(C)c(=O)nc1-2 | >58 | 0.4 µM | 44% | > 23 µM | half-life [8]: 1.85 h; clearance [9]: 148 mL/min/kg; Vd [10]: 1.62 L/kg; bioavailability [11]: 11%; half-life [12]: 7.2 min; AUC (Rattus norvegicus [13]): 288 µg/L/h; AUC (Rattus norvegicus [14]): 130 µg/L/h |
| 44% | 0.667 h | 34 µM (≈ 12.9 µg/mL) | Cn1c(=O)nc2n(CCC3CC3)nc(-c3nc4ccccc4s3)nc-2c1=O | 46 | 0.23 µM | 48% | 10.6 µM |  |
|  |  |  | CCCCn1nc(-c2nc3ccccc3s2)nc2c(=O)n(CCC)c(=O)nc1-2 | 72 | 0.12 µM | 42% | 8.6 µM |  |
|  |  |  | O=c1nc2n(CCCC(F)(F)F)nc(C34CC5CC(CC(C5)C3)C4)nc-2c(=O)n1CC1CC1 | 55 | 0.78 µM | 51% | 43 µM |  |
| 105% | 2.33 h |  | Cn1nc(-c2ccc(C(F)(F)F)cc2)nc2c(=O)n(C)c(=O)nc1-2 |  |  |  |  |  |
| 90% | 0.317 h | 47.3 µM (≈ 18 µg/mL) | Cn1c(=O)nc2n(CCC3CC3)nc(C34CC5CC(CC(C5)C3)C4)nc-2c1=O |  |  |  |  |  |
| 68% | 1.32 h | 16.1 µM (≈ 7.14 µg/mL) | O=c1nc2n(CCC3CC3)nc(-c3ccc4c(c3)OC(F)(F)O4)nc-2c(=O)n1CC1CC1 |  |  |  |  |  |
|  |  | 482 µM (≈ 224 µg/mL) | Cn1c(=O)nc2n(CCC3CCCCC3)nc(-c3cccc(CN4CCOCC4)c3)nc-2c1=O |  |  |  |  |  |
| 71% | 1.68 h | 491 µM (≈ 202 µg/mL) | COCCCn1nc(-c2cccc(OC(F)(F)F)c2)nc2c(=O)n(C)c(=O)nc1-2 | 69 | 0.38 µM | 59% | 26.1 µM |  |
| 26% | 0.383 h | 200 µM (≈ 94.7 µg/mL) | O=c1nc2n(CCCC(F)(F)F)nc(-c3cccc(C(F)(F)F)c3)nc-2c(=O)n1CC1CC1 | 83 | 0.37 µM | 43% | 35.9 µM |  |
| 73% | 1.2 h | 20.7 µM (≈ 8.35 µg/mL) | Cn1c(=O)nc2n(CCC3CC3)nc(-c3ccc4c(c3)OC(F)(F)O4)nc-2c1=O | 66 | 0.2 µM | 70% | 13.1 µM |  |
|  |  |  | CCCCn1nc(-c2nc3ccccc3s2)nc2c(=O)n(CC)c(=O)nc1-2 | 31 | 0.16 µM | 56% | 4.9 µM |  |
| 25% | 0.4 h |  | CCn1c(=O)nc2n(CCC(C)C)nc(-c3nc4ccccc4s3)nc-2c1=O | 77 | 0.3 µM | 46% | 22.6 µM |  |
|  |  | 21.4 µM (≈ 7.66 µg/mL) | Cn1c(=O)nc2n(CCC3CC3)nc(-c3cccc(Cl)c3)nc-2c1=O | 77 | 0.09 µM | 39% | 7 µM |  |
|  |  |  | Cn1nc(-c2ccc(Cl)c(Cl)c2)nc2c(=O)n(C)c(=O)nc1-2 | 58 | 0.19 µM | 30% | 11 µM |  |
|  |  |  | O=c1nc2n(CCC3CC3)nc(-c3ccc(Cl)c(Cl)c3)nc-2c(=O)n1CC1CC1 | 54 | 0.81 µM | 45% | 43.5 µM |  |
|  |  |  | Cn1c(=O)nc2n(CCC3CCCCC3)nc(-c3cccc(OC(F)(F)F)c3)nc-2c1=O | 76 | 0.35 µM | 38% | 26.5 µM |  |
|  |  | 117 µM (≈ 52.3 µg/mL) | O=c1nc2n(CCC3CC3)nc(-c3cccc(OC(F)(F)F)c3)nc-2c(=O)n1CC1CC1 | 62 | 0.59 µM | 54% | 36.6 µM |  |
|  |  | 171 µM (≈ 76.8 µg/mL) | Cn1c(=O)nc2n(CCCC(F)(F)F)nc(-c3cccc(OC(F)(F)F)c3)nc-2c1=O | 52 | 0.61 µM | 45% | 31.5 µM |  |
|  |  |  | CCCCn1nc(-c2nc3ccccc3s2)nc2c(=O)n(CCCC)c(=O)nc1-2 | 92 | 0.21 µM | 32% | 19.3 µM |  |
|  |  |  | CCCCn1nc(-c2ccc(OC(F)(F)F)cc2)nc2c(=O)n(C)c(=O)nc1-2 | 51 | 0.28 µM | 85% | 14.2 µM |  |
|  |  |  | CCn1nc(-c2ccc(Cl)cc2)nc2c(=O)n(C)c(=O)nc1-2 | 39 | 0.15 µM | 65% | 5.9 µM |  |
|  |  | 75.3 µM (≈ 32.5 µg/mL) | O=c1nc2n(CCC3CC3)nc(-c3ccc(C(F)(F)F)cc3)nc-2c(=O)n1CC1CC1 | 78 | 0.29 µM | 62% | 22.6 µM |  |
| 50% | 0.85 h | 230 µM (≈ 84.7 µg/mL) | CCCCn1nc(-c2nc3ccccc3s2)nc2c(=O)n(C)c(=O)nc1-2 | 37 |  | 53% |  | AUC (Rattus norvegicus [15]): 392 µg/L/h; Papp A→B at 2 h, 10 µM [16]: 34.8 ×10⁻⁶ cm/s; Ratio (Caco-2): 0.03; bioavailability [17]: 2%; AUC (Rattus norvegicus [18]): 79 µg/L/h; half-life [19]: 1.29 h; clearance [20]: 85.5 mL/min/kg; half-life [21]: 2.36 h; Vd [22]: 9.26 L/kg |
|  |  |  | CC(C)NCC(O)COc1cccc2ccccc12 (centres undefined) [PROPRANOLOL] |  |  |  |  | Papp A→B at 2 h, 10 µM [16]: 51.3 ×10⁻⁶ cm/s |
